This note sets out measurements from patent US20250041382A1, “ANTIVIRAL COMPOSITION COMPRISING OCTOMININ” (priority 2023, published 2025).

A short description of series [1]: in vitro. Type of series: cell-based.
The subject of series [2] is IPNV (VR299 strain). Kind of series: microbe, parasite or virus in culture. The procedure:
(§1) Specifically, three major fish pathogenic viruses VHSV (F1Wa05 strain), IHNV (RtPy91 strain), and IPNV (VR299 strain) were used to study the antiviral activity of Octominin. Octominin at various concentrations reacted with an equal amount of virus (infectious titer: 200 TCID50/mL) at 15° C. for 1 hour. Thereafter, the reactant was overlaid onto quadruplicate FHM cells in a 96-well plate (1×10^5 cells/mL) and incubated for 96 hours.
(§2) CPE was scored by optical microscopy using a DIAPHOT 300 inverted microscope (Nikon Cooperation, Tokyo, Japan) (score 0, 0% CPE; score 1, 10 to 20% CPE; score 2, 30 to 40% CPE; score 3, 50 to 60% CPE; score 4, 70 to 80% CPE; and score 5, 90 to 100%). The results were expressed as a 50% effective concentration (EC50) and calculated using Microsoft Excel software. Ribavirin, a known broad-spectrum antiviral agent, was used as a positive control group. The antiviral activity of Octominin was evaluated by calculation using Equation SI (selective index)=CC50/EC50.

The test system of series [3] is IHNV (RtPy91 strain). Kind of series: microbe, parasite or virus in culture. On the procedure: as §1, §2
Series [4] concerns VHSV (F1Wa05 strain). The series is described as follows: Cytopathic effect (CPE) reduction assay, VHSV in FHM cells. The procedure:
as §1, §2

Series [5] is described as follows: in vitro. The class given is cell-based. The following applies: fathead minnow.
Where [6] appears, read: fathead minnow (Pimephales promelas), 96 h.

Several values for one entry are separate records, joined by “and”; a condition that tells them apart may be missing. Equal values may be shown once. Peptide text beside a SMILES is read from it.

For the molecule `CC[C@H](C)[C@H](NC(=O)[C@H](C)NC(=O)[C@H](CCCCN)NC(=O)CNC(=O)[C@H](C)NC(=O)[C@H](Cc1c[nH]cn1)NC(=O)[C@@H](NC(=O)[C@H](C)NC(=O)CNC(=O)[C@H](CCCNC(=N)N)NC(=O)[C@@H](NC(=O)[C@H](CC(C)C)NC(=O)[C@H](Cc1c[nH]c2ccccc12)NC(=O)CN)[C@@H](C)CC)[C@@H](C)CC)C(=O)N[C@@H](Cc1c[nH]cn1)C(=O)NCC(=O)N[C@@H](CC(C)C)C(=O)N[C@H](C(=O)N[C@@H](Cc1c[nH]cn1)C(=O)N[C@@H](CCCNC(=N)N)C(=O)N[C@@H](CCCNC(=N)N)C(=O)N[C@@H](CCCNC(=N)N)C(=O)N[C@@H](Cc1c[nH]cn1)C(=O)O)[C@@H](C)CC` [Octominin] (H-GWLIRGAIHAGKAIHGLIHRRRH-OH), in series [1] (Chinook salmon (Oncorhynchus tshawytscha)), the half-maximal cytotoxic concentration (CC50) is 1870 µg/mL and 990 µM. In addition, the “SI (selective index)=CC50/EC50” value in series [2] (Chinook salmon (Oncorhynchus tshawytscha), 96 h) is 2.0; in series [3] (setting [6]) it was 4.9; in series [4] (setting [6]), 2.9.
For the molecule `NC(=O)c1ncn([C@@H]2O[C@H](CO)[C@@H](O)[C@H]2O)n1` [Ribavirin], the figures for the CC50 in series [1] (Chinook salmon) and in series [5] were 121 µM and 962 µM, respectively. Also, the selectivity ratio at 96 h was 162 in series [2] (Chinook salmon); 1750 in series [3] (fathead minnow); 3560 in series [4] (fathead minnow, FHM cells infected with VHSV (F1Wa05 strain)). Also, the EC50 in series [2] (Infectious pancreatic necrosis virus, CHSE-214) was determined as 0.75 µM; in series [3] (Infectious hematopoietic necrosis virus, 96 h), 0.55 µM; in series [4] (Viral hemorrhagic septicemia virus, 96 h) it was 0.27 µM.

Broadly, the CC50 is the concentration giving 50% cytotoxicity. Low values mean harm at low concentration, high ones better tolerance by the cells. Usually EC50 stands for the concentration needed to bring the measured effect to its halfway point.
